According to patent US12435032B2, “L-γ-methyleneglutamine compounds and methods of use” (University of Mississippi, priority 2019, dated 2025):
Entries after “also recorded” stand apart in the source; their conditions may differ. Read-outs that look alike come from different tables or passages of the source.

Tests used:
[1] = tested on: SK-BR-3 (ER−/PR−/HER2+) breast cancer cells; test: Growth inhibition of SK-BR-3 cells; type: cell-based; details: Homo sapiens, dose-response 0.32-320 μM
Protocol: (§1) Olaparib was chosen because it is one of a few FDA-approved chemotherapeutics for triple-negative breast cancer.
(§2) Cells were incubated for 15 minutes at 37° C.

[2] = Cytotoxicity (cell death, propidium iodide) in MCF-10A cells; type: cell-based; details: human, MCF-10A non-cancerous breast cells
Protocol: To assess the selectivity of cytotoxicity for cancer cells, all drugs and compounds were screened against MCF-10A, non-cancerous breast cells.
as §2

[3] = tested on: triple-negative MDA-MB-231 breast cancer cells; test: Growth inhibition of MDA-MB-231 cells; type: cell-based; details: for IC50: Homo sapiens; for IC50 / Growth Inhibition IC50: dose-response 0.32-320 μM
Protocol: as §1, §2

[4] = tested on: SK-BR-3 breast cancer cells; test: Cytotoxicity (cell death, propidium iodide) in SK-BR-3 cells; type: cell-based; details: for EC50: Homo sapiens, dose-response 0.32-320 μM
[5] = tested on: triple-negative MDA-MB-231 breast cancer cells; test: cells; details: Homo sapiens
[6] = tested on: MCF-10A non-cancerous breast cells; test: Growth inhibition of MCF-10A cells (negative control line); type: cell-based; details: Homo sapiens, dose-response 0.32-320 μM
Protocol: as §1, §2

[7] = tested on: MCF-7 (ER+/PR+/HER2−) breast cancer cells; test: Growth inhibition of MCF-7 cells (Hoechst 33342 fluorescence vs non-treated wells); type: cell-based; details: dose-response 0.32-320 μM
Protocol: as §1, §2

[8] = tested on: MCF-7 breast cancer cells; test: Cytotoxicity (cell death, propidium iodide) in MCF-7 cells; type: cell-based; details: for EC50: Homo sapiens, MCF7
[9] = SK-BR-3, 72 h / after the first 24 h
[10] = MDA-MB-231, 24 h, read-out: Cytotoxicity EC50
[11] = MDA-MB-231, 72 h, read-out: Cytotoxicity EC50
[12] = Homo sapiens, MCF7, 24 h, MCF-7, 24 h exposure
[13] = Homo sapiens, MCF7, 72 h, MCF-7, 72 h exposure
[14] = MCF-7, 24 h exposure, dose-response 0.32-320 μM, read-out: Cytotoxicity EC50
[15] = MCF-7, 72 h exposure, dose-response 0.32-320 μM, read-out: Cytotoxicity EC50
[16] = MDA-MB-231, read-out: cytotoxic EC50

| Structure (SMILES) | IC50 ([1]; SK-BR-3, 24 h exposure) [µM] | IC50 ([1]; SK-BR-3, 72 h exposure) [µM] | EC50 at 24 h ([2]; 24 h exposure) [µM] | EC50 at 24 h ([2]; head prints 24 h) [µM] | IC50 ([3]; MDA-MB-231, 24 h exposure) [µM] | IC50 ([3]; MDA-MB-231, 72 h exposure) [µM] | Growth Inhibition IC50 ([3]; MDA-MB-231, 24 h exposure) | Growth Inhibition IC50 ([3]; MDA-MB-231, 72 h exposure) | EC50 ([4]; SK-BR-3, 24 h exposure) [µM] | EC50 ([4]; SK-BR-3, 72 h exposure) [µM] | cytotoxicity EC50 [4, 9] | EC50 [5, 10] [µM] | EC50 [5, 11] [µM] | IC50 ([6]; 24 h exposure) [µM] | IC50 ([6]; 72 h exposure) [µM] | IC50 [7, 12] [µM] | IC50 [7, 13] [µM] | EC50 [8, 14] [µM] | EC50 [8, 15] [µM] | EC50 for MCF-7 cytotoxicity ([8]; MCF-7, 72 h exposure) | also measured |
| --- | --- | --- | --- | --- | --- | --- | --- | --- | --- | --- | --- | --- | --- | --- | --- | --- | --- | --- | --- | --- | --- |
| C=C(C[C@H](N)C(=O)O)C(=O)Nc1ccc(Cl)cc1 [Compound 10, (S)-2-amino-4-((4-chlorophenyl)carbamoyl) pent-4-enoic acid] | 78.7 | 4 | > 1000 | > 1000 | 867 | 712 | poorer potency than both tamoxifen or olaparib | poorer potency than olaparib | 262 | > 1000 | much reduced toxicity | > 1000 | > 1000 | > 1000 | > 1000 | 397 | 171 | 205 | 93.2 |  |  |
| C=C(C[C@H](N)C(=O)O)C(=O)N1CCCCC1 [Compound 8, (S)-2-amino-4-(piperidine-1-carbonyl) pent-4-enoic acid] | 133 | 0.6 | > 1000 | > 1000 | 685 | 813 | poorer potency than both tamoxifen or olaparib | poorer potency than olaparib | 0.1 | > 1000 | much reduced toxicity | > 1000 | > 1000 | > 1000 | > 1000 | 434 | 606 | 197 | 198 | did not change | Growth Inhibition IC50 ([7]; MCF-7, 72 h exposure): significantly less potent than tamoxifen |
| C=C(C[C@H](N)C(=O)O)C(N)=O [Compound 1, (S)-2-amino-4-carbamoylpent-4-enoic acid] | 7.9 | 11.3 | > 1000 | > 1000 | 141 | 585 | potency that was commensurate to tamoxifen | longer-term performance commensurate to olaparib; also recorded: as efficacious as olaparib | 0.2 | 2 |  | 8.9 | 320 | > 1000 | > 1000 | 459 | 609 | 152 | 3 | significantly lower than tamoxifen | cytotoxicity EC50 ([4]; SK-BR-3, at 24 or 72 h): commensurate EC50's at 24 or 72 h |
| CC/C(=C(\c1ccccc1)c1ccc(OCCN(C)C)cc1)c1ccccc1 [Tamoxifen, reference compound] |  |  | 268 | > 1000 |  |  |  |  | > 1000 | 0.3 |  | 26 | 30.9 |  |  |  |  | > 1000 |  | micromolar EC50 | EC50 at 24 h ([2]; within the first 24 h): 268 to 511 µM; cytotoxicity ([4]; SK-BR-3, 24 h exposure): neither tamoxifen nor olaparib were cytotoxic; EC50 [5, 16]: ≤ 100 µM; EC50 for cytotoxicity ([8]; MCF-7, 24 h exposure): neither tamoxifen nor olaparib were cytotoxic |
| C=C(C[C@H](N)C(=O)O)C(=O)Nc1ccc(F)cc1 [Compound 9, (S)-2-amino-4-((4-fluorophenyl)carbamoyl) pent-4-enoic acid] | 11.4 | 4.7 | > 1000 | > 1000 | 652 | 419 |  |  | 0.2 | 0.1 |  | > 1000 | 450 | > 1000 | > 1000 | 414 | 76 | 161 | 2.3 | significantly lower than tamoxifen | growth inhibition potency compared with olaparib ([3]; MDA-MB-231, throughout testing (24 h and 72 h)): equipotent to olaparib; cytotoxicity EC50 ([4]; SK-BR-3, at 24 or 72 h): commensurate EC50's at 24 or 72 h |
| O=C(c1cc(Cc2n[nH]c(=O)c3ccccc23)ccc1F)N1CCN(C(=O)C2CC2)CC1 [Olaparib, reference compound] | 1.6 | 1.1 | 511 | > 1000 | 161 | 154 |  |  | > 1000 | 0.1 |  | 61.2 | 97.1 | > 1000 | > 1000 | > 1000 |  | > 1000 | 26.5 | micromolar EC50 | EC50 at 24 h ([2]; within the first 24 h): 268 to 511 µM; cytotoxicity ([4]; SK-BR-3, 24 h exposure): neither tamoxifen nor olaparib were cytotoxic; EC50 [5, 16]: ≤ 100 µM; IC50 ([7]; MCF-7, 72 h exposure): 108 µM; EC50 for cytotoxicity ([8]; MCF-7, 24 h exposure): neither tamoxifen nor olaparib were cytotoxic |
| C=C(C[C@H](N)C(=O)O)C(=O)NC1CC1 [Compound 7, (S)-2-amino-4-(cyclopropylcarbamoyl) pent-4-enoic acid] | 314 | 0.6 | > 1000 | > 1000 | 649 | 922 |  | poorer potency than olaparib | 272 | > 1000 | much reduced toxicity | 933 | > 1000 | > 1000 | > 1000 | 231 | 416 | 64.1 | 508 |  | Growth Inhibition IC50 ([7]; MCF-7, 72 h exposure): significantly less potent than tamoxifen; EC50 ([8]; MCF-7, 24 h exposure, read-out: EC50 for cytotoxicity): 64 µM |
| C=C(C[C@H](N)C(=O)O)C(=O)NCc1ccc([N+](=O)[O-])cc1 [Compound 6, (S)-2-amino-4-((4-nitrobenzyl)carbamoyl) pent-4-enoic acid] | 12.8 | 3.2 | > 1000 | > 1000 | 216 | 368 | potency that was commensurate to tamoxifen | longer-term performance commensurate to olaparib; also recorded: as efficacious as olaparib | 0.3 | 0.4 |  | 150 | 270 | > 1000 | > 1000 | 457 | 534 | 485 | 20.4 |  | cytotoxicity EC50 ([4]; SK-BR-3, at 24 or 72 h): commensurate EC50's at 24 or 72 h |
